Measured values taken from US20130117887A1, “Herbicide resistant Camelina Sativa” (Agragen Inc, priority 2010, published 2013).

Assays:
[1] = test system: transgenic Camelina sativa lines bearing P197S mutated ALS gene; assay: Seedling herbicide assay, transgenic lines bearing P-mutated (P197S) ALS gene; type: in vivo; settings: for Effect as compared to control / Highest surviving concentration: T1, P197S
Description: Calena and A 10 (VK14A10.16) of the second generation (T1) Camelina sativa c. Blane Creek. The seedlings were grown one week on various concentrations of herbicides MSU, CSU and IMI. The concentrations are shown in mg/l.
(§1) Seedlings of the developed transgenic lines of Camelina sativa, cultivars Blane Creek and Calena second (T1) and fourth (T3) generations were exposed to various concentration of three herbicides: imidazolinone (IMI), chlorsulfuron (CSU) and metsulfuron (MSU). Resistance of the transgenic lines was compared to control non-transgenic seedlings of C. sativa cv. Blane Creek.
(§2) Seeds were sterilized in 2% Na-hypocloride and placed on wet filter paper in sterile conditions to allow germination. On the next day well-germinated seedlings were transferred on Petri dishes containing MS (Murasige-Scoog) 0.7% agar (without sucrose or hormones). Each dish contained one from the three herbicides in particular concentration (0.0001, 0.001, 0.01, 0.1, 1.0, 10, 100 mg/l). After one week of cultivation in vitro (+25° C./+18° C.; light/dark) the seedlings were photographed (as shown on the FIGS. 16A-16F). The highest survival concentration was found for each transgenic line and for each herbicide and compared to the non-transgenic control.

[2] = test system: transgenic C. sativa cv. Celine lines VK6-A1-No24 and VK6-A1-No26 (35S promoter, ALS W574 mutant); assay: In vitro leaf segment test, transgenic lines; type: cell-based, Camelina sativa; settings: media with 0.001, 0.01, 0.1, 1.0 mg/l herbicide, FIG. 13
Excerpt: (§3) FIG. 13 In vitro leaf segment test of two transgenic C. sativa cv. Celine lines VK6-A1-No24 (shown as 24 on Petri dishes) and VK6-Al-No26 (shown as 26 on Petri dishes). As a control, leaf segments of herbicide resistant natural mutant of Camelina microcarpa (C.m.) and leaf segments of susceptible C. sativa (C.s.) were used. Leaf segments of transgenic plants are resistant to the herbicides, while non-transgenic Camelina sativa is susceptible. The media in Petri dishes contains herbicides in various concentrations from 0 mg/l in control plate to 0.001, 0.01, 0.1, 1.0 mg/l of IMI, MSU and CSU.
(§4) Celine lines VK6-A1-No24 and VK6-A1-No26 transformed with Al construct (35S promoter—ALS W574 mutant—35S terminator). As controls, we used leaf segments of herbicide resistant natural ALS mutant of Camelina microcarpa that has broad resistance to class-2 herbicides and leaf segments of susceptible Camelina sativa. From the figure it can be clearly seen that leaf segments of transgenic plants are resistant to the herbicides, while non-transgenic Camelina sativa is susceptible.

[3] = test system: transgenic Camelina sativa lines bearing P197S-W574L mutated ALS gene; assay: Seedling herbicide assay, transgenic lines bearing double (PW) mutated ALS gene; type: in vivo; settings: for Effect as compared to control / Highest surviving concentration: Blane Creek, T3, P197S-W574L
Description: Blane Creek. The seedlings were grown one week on the various concentrations of herbicides MSU, CSU and IMI. The concentrations are shown in mg/l. Control plate has no herbicide in the growth media.
as §1, §2

[4] = test system: non-transgenic seedlings of C. sativa cv. Blane Creek (wild type); assay: Seedling herbicide assay, highest survival concentration, non-transgenic control; type: in vivo, Camelina sativa; settings: for Highest surviving concentration: seedlings one week on MS agar
Excerpt: as §1, §2

[5] = test system: non-transgenic susceptible Camelina sativa leaf segments; assay: In vitro leaf segment test, non-transgenic control; type: cell-based; settings: media with 0.001, 0.01, 0.1, 1.0 mg/l herbicide, FIG. 13
Excerpt: as §3, §4

[6] = test system: transgenic Camelina sativa lines bearing W574L mutated ALS gene; assay: Seedling herbicide assay, transgenic lines bearing W-mutated (W574L) ALS gene; type: in vivo; settings: for Effect as compared to control / Highest surviving concentration: Blane Creek
Description: Blane Creek and ALS23.3 (VK10A2.3) of the […] (T3) of Camelina sativa v. Blane Creek. The seedlings were grown one week on various concentrations of herbicides MSU, CSU and IMI. The concentrations are shown in mg/l. Control plate has no herbicide in the grown media.
as §1, §2

[7] = test system: transgenic Camelina sativa lines bearing A122T-P197S-W574L mutated ALS gene; assay: Seedling herbicide assay, transgenic lines bearing triple (APW) mutated ALS gene; type: in vivo; settings: Blane Creek, T3, A122T-P197S-W574L
Description: Blane Creek. The seedlings were grown one week on various concentrations of herbicides MSU, CSU and IMI. The concentrations are shown in mg/l. Control plate has no herbicide in the grown media.
as §1, §2

[8] = test system: transgenic Camelina sativa lines bearing A122T mutated ALS gene; assay: Seedling herbicide assay, transgenic lines bearing A-mutated (A122T) ALS gene; type: in vivo; settings: for Effect as compared to control / Highest surviving concentration: T1, A122T
Description: Calena, as well as A9.1 (VK14A9.1) and A9.2 (VK14A9.4.2) of the second generation (T1) Camelina sativa v. Blane Creek. The seedlings were grown one week on the various concentrations of herbicides MSU, CSU and IMI. The concentrations are shown in mg/l. Control plate has no herbicide in the grown media.
as §1, §2

[9] = line A10 (VK14A10.16), Blane Creek
[10] = line ALS23.3 (VK10A2.3), T3, W574L
[11] = line A9.1 (VK14A9.1), Blane Creek
[12] = line A9.2 (VK14A9.4.2), Blane Creek

Structure (SMILES)	Effect as compared to control ([1]; line A4 (VK9A4.4.2), Calena)	Highest surviving concentration ([1]; line A4 (VK9A4.4.2), Calena) [mg/L]	Effect as compared to control [1, 9]	Highest surviving concentration [1, 9] [mg/L]	response of leaf segments to the herbicides [2]	Effect as compared to control ([3]; line ALS7.3 (KK24A14.4))	Highest surviving concentration ([3]; line ALS7.3 (KK24A14.4)) [mg/L]	Effect as compared to control ([3]; line ALS8.3 (KK18A8))	Highest surviving concentration ([3]; line ALS8.3 (KK18A8)) [mg/L]	Effect as compared to control [4]	Highest surviving concentration [4] [mg/L]	response of leaf segments to the herbicides [5]	spectrum of resistance of mutation W [6]	Effect as compared to control ([6]; line A2 (VK10A2.2), T1, W574L)	Highest surviving concentration ([6]; line A2 (VK10A2.2), T1, W574L) [mg/L]	Effect as compared to control [6, 10]	Highest surviving concentration [6, 10] [mg/L]	Effect as compared to control ([7]; line ALS 11.3 (VK10A5.3))	Highest surviving concentration ([7]; line ALS 11.3 (VK10A5.3)) [mg/L]	Effect as compared to control ([7]; line ALS22.3 (VK13A15.12))	further results
COc1nc(C)nc(NC(=O)NS(=O)(=O)c2ccccc2Cl)n1 [CSU, Chlorsulfuron]	10 000	10	1 000	1.0	resistant	10 000	10	10 000	10	1	0.001	susceptible	good resistance	10 000	10	1 000	1.0	10 000	10	10 000	spectrum of resistance of mutation P [1]: specifically increased resistance; Highest surviving concentration ([7]; line ALS22.3 (VK13A15.12)): 10 mg/L; Effect as compared to control ([8]; line A3 (VK9A3.4.1), Calena): 10; Highest surviving concentration ([8]; line A3 (VK9A3.4.1), Calena): 0.01 mg/L; Effect as compared to control [8, 11]: 1; Highest surviving concentration [8, 11]: 0.001 mg/L; Effect as compared to control [8, 12]: 10; Highest surviving concentration [8, 12]: 0.01 mg/L
COCc1cnc(C2=NC(C)(C(C)C)C(=O)N2)c(C(=O)O)c1 (stereo not drawn) [IMI, Imazamox]	10	0.1	10	0.1	resistant	1 000	10	1 000	10	1	0.01	susceptible	good resistance	10 000	100	1 000	10	1 000	10	1 000	Highest surviving concentration ([7]; line ALS22.3 (VK13A15.12)): 10 mg/L; spectrum of resistance of mutation A [8]: specifically increased resistance; Effect as compared to control ([8]; line A3 (VK9A3.4.1), Calena): 1 000; Highest surviving concentration ([8]; line A3 (VK9A3.4.1), Calena): 10 mg/L; Effect as compared to control [8, 11]: 100; Highest surviving concentration [8, 11]: 1.0 mg/L; Effect as compared to control [8, 12]: 1 000; Highest surviving concentration [8, 12]: 10 mg/L
COC(=O)c1ccccc1S(=O)(=O)NC(=O)Nc1nc(C)nc(OC)n1 [MSU, Metsulfuron-methyl]	10	0.01	10	0.01	resistant	1 000	1.0	1 000	1.0	1	0.001	susceptible	less effective	100	0.1	100	0.1	100	0.1	1 000	increase in resistance as compared to non-transgenic control ([3]; lines bearing double mutations PW): 1 000; Highest surviving concentration ([7]; line ALS22.3 (VK13A15.12)): 1.0 mg/L; Effect as compared to control ([8]; line A3 (VK9A3.4.1), Calena): 10; Highest surviving concentration ([8]; line A3 (VK9A3.4.1), Calena): 0.01 mg/L; Effect as compared to control [8, 11]: 1; Highest surviving concentration [8, 11]: 0.001 mg/L; Effect as compared to control [8, 12]: 1; Highest surviving concentration [8, 12]: 0.001 mg/L
